The source made the active and inactive calls. The calls are words filed in the database; no cut-off is given here.

System in the first data set: not listed separately
Briefly: Lipophilicity, log P of the compound. In kind it is physicochemical. The note with it: octanol/water.
As usually defined, the logP is the decadic logarithm of the partition coefficient of the neutral form, usually between octanol and water. Low readings indicate lower lipophilicity, high ones higher lipophilicity. Consider `COc1cc(Cn2c(=O)cc(N3CCC[C@@H](N)C3)n(Cc3cc(F)ccc3C#N)c2=O)c(Br)c(Br)c1OC`, for which the logP was 4.32.

As for `CC#CCn1c(N2CCC[C@@H](N)C2)cc(=O)n(Cc2cc(Br)c(OC)c(OC)c2)c1=O`, the logP was 2.38. The same measure, in the same setting: then `CC#CCn1c(N2CCC[C@@H](N)C2)cc(=O)n(CC)c1=O`, with 0.41; and `CC#CCn1c(N2CCC[C@@H](N)C2)cc(=O)n(Cc2c(Br)c(Br)c(OC)c(OC)c2Br)c1=O`, with 4.04; and `CCCCCCn1c(=O)cc(N2CCC[C@@H](N)C2)n(Cc2cc(F)ccc2C#N)c1=O`, with 3.26. The compound `N#Cc1ccc(F)cc1Cn1c(N2CCC[C@@H](N)C2)cc(=O)n(Cc2cc(F)cc(F)c2)c1=O` displayed a logP of 3.23. `CC#CCn1c(N2CCC[C@@H](N)C2)cc(=O)n(Cc2cc(F)cc(F)c2)c1=O`: the logP is 2.12. Still for that read-out and setting: the result for `CC#CCn1c(N2CCC[C@@H](N)C2)cc(=O)n(CCC)c1=O` reads 0.9; that for `COc1cc(Cn2c(=O)cc(N3CCC[C@@H](N)C3)n(Cc3cc(F)ccc3C#N)c2=O)cc(Br)c1OC`, 3.49; that for `CC#CCn1c(N2CCC[C@@H](N)C2)cc(=O)n(Cc2ccc(OC)c(OC)c2)c1=O`, 1.55. `CC#CCn1c(N2CCC[C@@H](N)C2)cc(=O)n(CCCCCC)c1=O` registered a lipophilicity (logP) of 2.15. Same read-out and setting: the result for `CC#CCn1c(N2CCC[C@@H](N)C2)cc(=O)n(CCCCCCCCCC)c1=O` reads 3.82; that for `COc1c(Br)c(Br)c(Cn2c(=O)cc(N3CCC[C@@H](N)C3)n(Cc3cc(F)ccc3C#N)c2=O)c(Br)c1OC`, 5.15. Compound `CC#CCn1c(N2CCC[C@@H](N)C2)cc(=O)n(Cc2cc(C)cc(C)c2)c1=O` showed a logP of 2.78. The same measure, in the same setting: the result for `CC#CCn1c(N2CCC[C@@H](N)C2)cc(=O)n(Cc2cc(OC)c(OC)c(Br)c2Br)c1=O` reads 3.21; that for `CCCCCCCCCCn1c(=O)cc(N2CCC[C@@H](N)C2)n(Cc2cc(F)ccc2C#N)c1=O`, 4.93.

Compound `COc1ccc(Cn2c(=O)cc(N3CCC[C@@H](N)C3)n(Cc3cc(F)ccc3C#N)c2=O)cc1OC` [listing 1 of 2 here] had a logP of 2.66. `Cc1cc(C)cc(Cn2c(=O)cc(N3CCC[C@@H](N)C3)n(Cc3cc(F)ccc3C#N)c2=O)c1`: the logP stood at 3.89.

The test system of the next data set is Mus musculus. Briefly: Toxicity in BKS db/db mouse assessed as effect on body weight at 100 mg/kg/day up to 4 weeks. In kind it is organism-based. The note with it: in vivo, 672 h.
As to `CN(C)C(=N)N=C(N)N` [METFORMIN], the Activity result is “Non-Toxic”.

Regarding `COc1ccc(Cn2c(=O)cc(N3CCC[C@@H](N)C3)n(Cc3cc(F)ccc3C#N)c2=O)cc1OC.O=C(O)CCC(=O)O`, the Activity result is reported as “Non-Toxic”.

For another data set, the system named is Mus musculus. Briefly: Toxicity in BKS db/db mouse assessed as effect on water intake at 100 mg/kg/day up to 4 weeks. Conditions: in vivo, 672 h. In kind it is organism-based.
As for `CN(C)C(=N)N=C(N)N` [METFORMIN], the Activity result is on record as “Toxic”. `COc1ccc(Cn2c(=O)cc(N3CCC[C@@H](N)C3)n(Cc3cc(F)ccc3C#N)c2=O)cc1OC.O=C(O)CCC(=O)O`: the Activity result is “Toxic”.

The test system of the next data set is Mus musculus. Briefly: Antihyperglycemic activity in BKS db/db mouse assessed as reduction in blood glucose level at 100 mg/kg/day for 4 weeks by glucometric analysis.
Details: not given
It counts as functional, organism-based.
In the case of `COc1ccc(Cn2c(=O)cc(N3CCC[C@@H](N)C3)n(Cc3cc(F)ccc3C#N)c2=O)cc1OC` [listing 2 of 2 here], the result was Active. With `CN(C)C(=N)NC(=N)N`, the outcome was Active.

A further data set deals with Mus musculus. The experiment in a line: Effect on abdominal fat content in BKS db/db mouse assessed as reduction in abdominal fat ratio at 100 mg/kg/day for 4 weeks.
Details: not given
It counts as functional, organism-based.
`COc1ccc(Cn2c(=O)cc(N3CCC[C@@H](N)C3)n(Cc3cc(F)ccc3C#N)c2=O)cc1OC` [listing 2 of 2 here]: the outcome was inactive. Same read-out and setting: the result for `CN(C)C(=N)NC(=N)N` reads “inactive”.

Values taken from ChEMBL document CHEMBL4118184, “Design, synthesis and biological evaluation of novel pyrimidinedione derivatives as DPP-4 inhibitors” (Bioorg Med Chem Lett, 2018).
